System: 324938-238-R-J1-PDC complex spheroids viability
Assay: Anticancer human tumor 324938-238-R-J1-PDC patient-derived bladder carcinoma cell line growth inhibition [CLK]
Conditions: for IC50: curve of first compound; for viability, T/C: stronger effect = lower value
Method in brief: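 Patient-derived tumor cells grown as complex spheroids with HUVEC endothelial cells and mesenchymal stem cells, treated with drug combinations. Concentrations descend in half-log steps from near clinical Cmax, or from 10 microM if Cmax unknown.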

[1] = second compound 0.0316 µM, first compound 0.0316 µM
[2] = second compound 0.0316 µM, first compound 0.1 µM
[3] = second compound 0.0316 µM, first compound 0.316 µM
[4] = second compound 0.0316 µM, first compound 1 µM
[5] = second compound 0.0316 µM, first compound 3.16 µM
[6] = second compound 0.0316 µM, first compound 10 µM
[7] = second compound 0.1 µM, first compound 0.0316 µM
[8] = second compound 0.1 µM, first compound 0.1 µM
[9] = second compound 0.1 µM, first compound 0.316 µM
[10] = second compound 0.1 µM, first compound 1 µM
[11] = second compound 0.1 µM, first compound 3.16 µM
[12] = second compound 0.1 µM, first compound 10 µM
[13] = second compound 0.316 µM, first compound 0.0316 µM
[14] = second compound 0.316 µM, first compound 0.1 µM
[15] = second compound 0.316 µM, first compound 0.316 µM
[16] = second compound 0.316 µM, first compound 1 µM
[17] = second compound 0.316 µM, first compound 3.16 µM
[18] = second compound 0.316 µM, first compound 10 µM
[19] = second compound 1 µM, first compound 0.0316 µM
[20] = second compound 1 µM, first compound 0.1 µM
[21] = second compound 1 µM, first compound 0.316 µM
[22] = second compound 1 µM, first compound 1 µM
[23] = second compound 1 µM, first compound 3.16 µM
[24] = second compound 1 µM, first compound 10 µM
[25] = second compound 3.16 µM, first compound 0.0316 µM
[26] = second compound 3.16 µM, first compound 0.1 µM
[27] = second compound 3.16 µM, first compound 0.316 µM
[28] = second compound 3.16 µM, first compound 1 µM
[29] = second compound 3.16 µM, first compound 3.16 µM
[30] = second compound 3.16 µM, first compound 10 µM
[31] = second compound 10 µM, first compound 0.0316 µM
[32] = second compound 10 µM, first compound 0.1 µM
[33] = second compound 10 µM, first compound 0.316 µM
[34] = second compound 10 µM, first compound 1 µM
[35] = second compound 10 µM, first compound 3.16 µM
[36] = second compound 10 µM, first compound 10 µM
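Note: viability read after seven days of drug exposure.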
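Throughout, for viability, T/C: 100% = DMSO vehicle control wells.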

C#Cc1c(F)ccc2cc(O)cc(-c3ncc4c(N5CC6CCC(C5)N6)nc(OCC56CCCN5CC(F)C6)nc4c3F)c12 (stereo not drawn) + CN1CCN(c2cc(C(=O)Nc3cc4cc(-c5cnn(C)c5)ccc4cn3)ccn2)CC1
IC50 (second compound 0.0316 µM): 5050 nM
IC50 (second compound 0.1 µM): 1240 nM
IC50 (second compound 0.316 µM): < 31.6 nM
IC50 (second compound 1 µM): < 31.6 nM
IC50 (second compound 3.16 µM): < 31.6 nM
IC50 (second compound 10 µM): < 31.6 nM
viability, T/C [1]: 77.5%
viability, T/C [2]: 86.1%
viability, T/C [3]: 74.5%
viability, T/C [4]: 69.9%
viability, T/C [5]: 56%
viability, T/C [6]: 41.4%
viability, T/C [7]: 57.3%
viability, T/C [8]: 51.8%
viability, T/C [9]: 52.7%
viability, T/C [10]: 52.8%
viability, T/C [11]: 38%
viability, T/C [12]: 32.7%
viability, T/C [13]: 28.2%
viability, T/C [14]: 28%
viability, T/C [15]: 22.2%
viability, T/C [16]: 23.9%
viability, T/C [17]: 21.5%
viability, T/C [18]: 19.4%
viability, T/C [19]: 2%
viability, T/C [20]: 2.51%
viability, T/C [21]: 2.35%
viability, T/C [22]: 2.31%
viability, T/C [23]: 1.37%
viability, T/C [24]: 0.75%
viability, T/C [25]: 0.13%
viability, T/C [26]: 0.3%
viability, T/C [27]: 0.16%
viability, T/C [28]: 0.11%
viability, T/C [29]: 0.15%
viability, T/C [30]: 0.14%
viability, T/C [31]: 0.11%
viability, T/C [32]: 0.16%
viability, T/C [33]: 1.1%
viability, T/C [34]: 0.14%
viability, T/C [35]: 0.15%
viability, T/C [36]: 0.24%

CC(CO)NC(=O)c1cc(-c2ccc(Cl)cc2)nn(-c2cnn(C)c2)c1=O (stereo not drawn) + CN1CCN(c2cc(C(=O)Nc3cc4cc(-c5cnn(C)c5)ccc4cn3)ccn2)CC1
IC50 (second compound 0.0316 µM): > 10000 nM
IC50 (second compound 0.1 µM): 4990 nM
IC50 (second compound 0.316 µM): < 31.6 nM
IC50 (second compound 1 µM): < 31.6 nM
IC50 (second compound 3.16 µM): < 31.6 nM
IC50 (second compound 10 µM): < 31.6 nM
viability, T/C [1]: 84.4%
viability, T/C [2]: 92.8%
viability, T/C [3]: 83.5%
viability, T/C [4]: 81%
viability, T/C [5]: 63.6%
viability, T/C [6]: 50.9%
viability, T/C [7]: 60.7%
viability, T/C [8]: 62.8%
viability, T/C [9]: 63.3%
viability, T/C [10]: 55.7%
viability, T/C [11]: 57.3%
viability, T/C [12]: 41.3%
viability, T/C [13]: 23.5%
viability, T/C [14]: 25.9%
viability, T/C [15]: 25.3%
viability, T/C [16]: 25.8%
viability, T/C [17]: 26.5%
viability, T/C [18]: 21.4%
viability, T/C [19]: 1.59%
viability, T/C [20]: 1.8%
viability, T/C [21]: 1.38%
viability, T/C [22]: 1.23%
viability, T/C [23]: 1.2%
viability, T/C [24]: 1.04%
viability, T/C [25]: 0.16%
viability, T/C [26]: 0.21%
viability, T/C [27]: 0.21%
viability, T/C [28]: 0.15%
viability, T/C [29]: 0.25%
viability, T/C [30]: 0.67%
viability, T/C [31]: 0.13%
viability, T/C [32]: 0.19%
viability, T/C [33]: 0.25%
viability, T/C [34]: 0.2%
viability, T/C [35]: 0.18%
viability, T/C [36]: 0.22%

CC(Nc1ccc2c(c1)OCCn1cc(N3C(=O)OCC3C(F)F)nc1-2)C(N)=O (stereo not drawn) + CN1CCN(c2cc(C(=O)Nc3cc4cc(-c5cnn(C)c5)ccc4cn3)ccn2)CC1
IC50 (second compound 0.0316 µM): 167 nM
IC50 (second compound 0.1 µM): < 31.6 nM
IC50 (second compound 0.316 µM): < 31.6 nM
IC50 (second compound 1 µM): < 31.6 nM
IC50 (second compound 3.16 µM): < 31.6 nM
IC50 (second compound 10 µM): < 31.6 nM
viability, T/C [1]: 65.8%
viability, T/C [2]: 58.5%
viability, T/C [3]: 40%
viability, T/C [4]: 29.9%
viability, T/C [5]: 24.4%
viability, T/C [6]: 15.8%
viability, T/C [7]: 48.2%
viability, T/C [8]: 40%
viability, T/C [9]: 29.6%
viability, T/C [10]: 26.5%
viability, T/C [11]: 23.3%
viability, T/C [12]: 15.5%
viability, T/C [13]: 21.3%
viability, T/C [14]: 20.8%
viability, T/C [15]: 15.2%
viability, T/C [16]: 14.1%
viability, T/C [17]: 11.8%
viability, T/C [18]: 9.85%
viability, T/C [19]: 1.49%
viability, T/C [20]: 2.08%
viability, T/C [21]: 1.71%
viability, T/C [22]: 0.86%
viability, T/C [23]: 0.52%
viability, T/C [24]: 0.51%
viability, T/C [25]: 0.1%
viability, T/C [26]: 0.15%
viability, T/C [27]: 0.14%
viability, T/C [28]: 0.1%
viability, T/C [29]: 0.16%
viability, T/C [30]: 0.18%
viability, T/C [31]: 0.07%
viability, T/C [32]: 0.14%
viability, T/C [33]: 0.19%
viability, T/C [34]: 0.12%
viability, T/C [35]: 0.17%
viability, T/C [36]: 0.2%

COc1c(OCCCN2CCOCC2)ccc2c3n(c(=NC(=O)c4cnc(N)nc4)nc12)CCN3 + CN1CCN(c2cc(C(=O)Nc3cc4cc(-c5cnn(C)c5)ccc4cn3)ccn2)CC1
IC50 (second compound 0.0316 µM): 17.3 nM
IC50 (second compound 0.1 µM): 5.43 nM
IC50 (second compound 0.316 µM): < 3.16 nM
IC50 (second compound 1 µM): < 3.16 nM
IC50 (second compound 3.16 µM): < 3.16 nM
IC50 (second compound 10 µM): < 3.16 nM
viability, T/C (second compound 0.0316 µM, first compound 0.00316 µM): 76.1%
viability, T/C (second compound 0.0316 µM, first compound 0.01 µM): 59.6%
viability, T/C [1]: 39.2%
viability, T/C [2]: 21.2%
viability, T/C [3]: 7.23%
viability, T/C [4]: 1.32%
viability, T/C (second compound 0.1 µM, first compound 0.00316 µM): 55.8%
viability, T/C (second compound 0.1 µM, first compound 0.01 µM): 43.5%
viability, T/C [7]: 29.5%
viability, T/C [8]: 17.6%
viability, T/C [9]: 6.5%
viability, T/C [10]: 1.24%
viability, T/C (second compound 0.316 µM, first compound 0.00316 µM): 23.9%
viability, T/C (second compound 0.316 µM, first compound 0.01 µM): 19.4%
viability, T/C [13]: 15.1%
viability, T/C [14]: 8.98%
viability, T/C [15]: 2.42%
viability, T/C [16]: 0.55%
viability, T/C (second compound 1 µM, first compound 0.00316 µM): 2.31%
viability, T/C (second compound 1 µM, first compound 0.01 µM): 2.19%
viability, T/C [19]: 1.42%
viability, T/C [20]: 0.41%
viability, T/C [21]: 0.11%
viability, T/C [22]: 0.13%
viability, T/C (second compound 3.16 µM, first compound 0.00316 µM): 0.09%
viability, T/C (second compound 3.16 µM, first compound 0.01 µM): 0.16%
viability, T/C [25]: 0.14%
viability, T/C [26]: 0.07%
viability, T/C [27]: 0.08%
viability, T/C [28]: 0.13%
viability, T/C (second compound 10 µM, first compound 0.00316 µM): 0.05%
viability, T/C (second compound 10 µM, first compound 0.01 µM): 0.24%
viability, T/C [31]: 0.16%
viability, T/C [32]: 0.09%
viability, T/C [33]: 0.29%
viability, T/C [34]: 0.16%

— PubChem BioAssay AID2060621 (Molecular Pharmacology Branch, DTP, NCI, 2025)
